# Experimental data from the supplement of paper PMC10307832.
# Experiments:
# Experiment in all cases: relative viability (nuclei count vs DMSO), 5 days (fraction); higher = more cells survive
# [1] = compound: CC(C)C[C@H](NC(=O)[C@H](CCc1ccccc1)NC(=O)CN1CCOCC1)C(=O)N[C@@H](Cc1ccccc1)C(=O)N[C@@H](CC(C)C)C(=O)[C@@]1(C)CO1 [Carfilzomib] + CC(=O)c1c(C)c2cnc(Nc3ccc(N4CCNCC4)cn3)nc2n(C2CCCC2)c1=O [Palbociclib] (partner 0.5 µM)
# Summary of the method: (§1)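 The day after seeding in 1536-well plates, lung cancer cell lines were treated by pin tool with a single drug, or with a fixed anchor-drug dose together with five library-drug doses (not always all listed) in √10 steps. After 5 days, a combined fix-and-stain solution (final 0.05% Triton X-100, 1% formaldehyde, 1 ug/ml Hoechst) was added. Nuclei counted on 4× images gave relative viability as treated counts over vehicle counts, reported as the median of duplicate plates.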
# [2] = compound: CC(C)C[C@H](NC(=O)[C@H](CCc1ccccc1)NC(=O)CN1CCOCC1)C(=O)N[C@@H](Cc1ccccc1)C(=O)N[C@@H](CC(C)C)C(=O)[C@@]1(C)CO1 [Carfilzomib] + CC(C)C[C@H](NC(=O)[C@H](Cc1ccccc1)NC(=O)c1cnccn1)B(O)O [Bortezomib] (partner 0.002 µM)
# Summary of the method: as §1
# [3] = compound: CC(C)C[C@H](NC(=O)[C@H](CCc1ccccc1)NC(=O)CN1CCOCC1)C(=O)N[C@@H](Cc1ccccc1)C(=O)N[C@@H](CC(C)C)C(=O)[C@@]1(C)CO1 [Carfilzomib] + NC(=O)Nc1cc(-c2cccc(F)c2)sc1C(=O)N[C@H]1CCCNC1 [AZD7762] (partner 0.2 µM)
# Summary of the method: as §1
# [4] = compound: CC(C)C[C@H](NC(=O)[C@H](CCc1ccccc1)NC(=O)CN1CCOCC1)C(=O)N[C@@H](Cc1ccccc1)C(=O)N[C@@H](CC(C)C)C(=O)[C@@]1(C)CO1 [Carfilzomib] + Nc1ncn([C@H]2C[C@H](O)[C@@H](CO)O2)c(=O)n1 [Decitabine] (partner 2 µM)
# Summary of the method: as §1
Cell Line,relative viability ([1]; first compound 0.001 µM),relative viability ([1]; first compound 0.003162 µM),relative viability ([1]; first compound 0.01 µM),relative viability ([1]; first compound 0.03162 µM),relative viability ([1]; first compound 0.1 µM),relative viability ([2]; first compound 0.001 µM),relative viability ([2]; first compound 0.003162 µM),relative viability ([2]; first compound 0.01 µM),relative viability ([2]; first compound 0.03162 µM),relative viability ([2]; first compound 0.1 µM),relative viability ([3]; first compound 0.001 µM),relative viability ([3]; first compound 0.003162 µM),relative viability ([3]; first compound 0.01 µM),relative viability ([3]; first compound 0.03162 µM),relative viability ([3]; first compound 0.1 µM),relative viability ([4]; first compound 0.001 µM),relative viability ([4]; first compound 0.003162 µM),relative viability ([4]; first compound 0.01 µM),relative viability ([4]; first compound 0.03162 µM),relative viability ([4]; first compound 0.1 µM)
HCC-366,0.374,0.361,0.396,0.327,0.0404,0.891,0.966,1.07,0.196,0.0175,0.231,0.276,0.251,0.419,0.212,0.32,0.412,0.352,0.447,0.086
HCC-827,0.499,0.459,0.72,0.459,0.159,1.01,1.01,1.06,0.677,0.422,0.194,0.202,0.207,0.201,0.17,0.287,0.371,0.31,0.269,0.133
HOP-62,0.44,0.496,0.41,0.19,0.0616,0.531,0.475,0.425,0.0851,0.0746,0.619,0.699,0.404,0.173,0.0821,0.25,0.207,0.249,0.182,0.0817
LC-2-ad,0.549,0.495,0.488,0.481,0.32,0.947,1.08,0.482,0.132,0.0828,0.798,0.913,0.856,0.794,0.608,0.878,0.811,0.75,0.861,0.557
LCLC-97TM1,0.217,0.214,0.24,0.0666,0.0679,0.292,0.714,0.268,0.0483,0.0702,0.219,0.246,0.252,0.158,0.0638,0.234,0.283,0.226,0.115,0.0656
LCLC-103H,0.415,0.47,0.465,0.494,0.416,1,1.14,0.678,0.294,0.27,0.767,0.849,0.759,0.778,0.402,0.722,0.732,0.793,0.728,0.387
LOU-NH91,0.492,0.543,0.514,0.363,0.314,0.438,0.49,0.362,0.26,0.263,0.741,0.778,0.679,0.309,0.329,0.823,0.864,0.852,0.413,0.389
LU99A,0.408,0.402,0.439,0.351,0.188,1.09,1.31,1.05,0.459,0.216,0.346,0.368,0.33,0.26,0.187,0.952,1.13,0.961,0.821,0.317
LXF-289,0.586,0.582,0.569,0.0924,0.12,1.03,0.957,0.653,0.0711,0.0774,1.06,1.14,1.14,0.119,0.114,0.368,0.399,0.375,0.162,0.0931
NCI-H23,0.508,0.484,0.429,0.212,0.116,1.01,0.92,0.445,0.165,0.125,0.232,0.267,0.196,0.112,0.122,0.33,0.336,0.307,0.24,0.164
NCI-H322M,0.487,0.475,0.543,0.522,0.37,1.27,1.31,1.35,1.21,0.66,0.677,0.527,0.682,0.59,0.464,0.621,0.756,0.615,0.718,0.505
NCI-H441,0.217,0.219,0.178,0.0969,0.155,0.25,0.383,0.14,0.153,0.111,1.06,1.23,1.07,0.252,0.138,0.23,0.258,0.211,0.122,0.14
NCI-H460,0.125,0.225,0.0809,0.0983,0.0171,1.06,1.12,1,0.0827,0.0107,0.655,0.567,0.687,0.732,0.0739,0.453,0.514,0.394,0.414,0.0292
NCI-H647,0.458,0.45,0.306,0.0189,0.0185,0.674,0.72,0.154,0.0243,0.0299,0.385,0.468,0.29,0.0154,0.0223,0.365,0.321,0.274,0.049,0.0498
NCI-H650,0.331,0.362,0.367,0.224,0.14,0.587,0.701,0.619,0.145,0.157,0.862,1.1,0.964,0.88,0.23,0.342,0.314,0.316,0.31,0.139
NCI-H727,0.575,0.607,0.628,0.584,0.417,0.72,0.77,0.795,0.3,0.147,0.511,0.498,0.685,0.608,0.242,0.897,0.937,0.836,0.9,0.746

Cell Line,relative viability ([1]; first compound 0.001 µM),relative viability ([1]; first compound 0.003162 µM),relative viability ([1]; first compound 0.01 µM),relative viability ([1]; first compound 0.03162 µM),relative viability ([1]; first compound 0.1 µM),relative viability ([2]; first compound 0.001 µM),relative viability ([2]; first compound 0.003162 µM),relative viability ([2]; first compound 0.01 µM),relative viability ([2]; first compound 0.03162 µM),relative viability ([2]; first compound 0.1 µM),relative viability ([3]; first compound 0.001 µM),relative viability ([3]; first compound 0.003162 µM),relative viability ([3]; first compound 0.01 µM),relative viability ([3]; first compound 0.03162 µM),relative viability ([3]; first compound 0.1 µM),relative viability ([4]; first compound 0.001 µM),relative viability ([4]; first compound 0.003162 µM),relative viability ([4]; first compound 0.01 µM),relative viability ([4]; first compound 0.03162 µM),relative viability ([4]; first compound 0.1 µM)
NCI-H838,0.209,0.226,0.268,0.193,0.102,0.772,0.838,0.624,0.179,0.114,0.945,0.989,0.954,0.962,0.621,0.437,0.498,0.434,0.27,0.178
NCI-H1355,0.41,0.419,0.432,0.422,0.139,1.07,1.1,1.15,0.315,0.157,0.8,0.886,0.91,0.512,0.207,0.379,0.402,0.353,0.377,0.157
NCI-H1437,0.318,0.329,0.415,0.296,0.213,0.473,0.5,0.437,0.176,0.13,1.07,1.13,1.13,1.14,0.478,0.58,0.599,0.567,0.413,0.316
NCI-H1651,0.521,0.549,0.485,0.151,0.0991,0.895,0.836,0.647,0.292,0.134,0.372,0.471,0.457,0.208,0.0827,0.467,0.677,0.32,0.163,0.0885
NCI-H1666,0.674,0.67,0.651,0.615,0.488,0.987,0.888,0.771,0.188,0.218,0.837,0.935,1.1,0.704,0.475,0.707,0.782,0.751,0.704,0.403
NCI-H1734,0.346,0.382,0.354,0.315,0.105,0.848,1.1,0.484,0.147,0.146,0.549,0.633,0.521,0.204,0.114,0.482,0.517,0.48,0.474,0.136
NCI-H1755,0.465,0.458,0.461,0.408,0.293,0.929,1.02,0.685,0.282,0.221,0.476,0.502,0.496,0.435,0.409,0.732,0.729,0.669,0.755,0.446
NCI-H1792,0.655,0.646,0.707,0.634,0.466,0.962,1,0.919,0.979,0.559,–,0.96,0.742,0.38,0.0881,–,0.592,0.619,0.542,0.207
NCI-H1915,0.479,0.513,0.521,0.514,0.0575,0.906,0.849,1.03,0.142,0.0581,0.61,0.711,0.57,0.414,0.125,0.257,0.296,0.24,0.259,0.106
NCI-H1975,0.364,0.635,0.472,0.119,0.107,0.255,0.266,0.137,0.122,0.13,0.651,0.804,0.684,0.222,0.19,0.378,0.451,0.365,0.132,0.147
NCI-H1993,0.667,0.658,0.641,0.723,0.383,0.912,1.18,1.1,0.453,0.425,0.625,0.841,0.69,0.589,0.503,0.542,0.589,0.658,0.541,0.461
NCI-H2085,0.501,0.47,0.456,0.371,0.265,1.03,0.923,0.773,0.451,0.313,0.726,0.942,0.988,0.321,0.293,0.589,0.608,0.584,0.421,0.297
NCI-H2087,0.194,0.343,0.192,0.0427,0.0568,0.803,0.793,0.202,0.0909,0.101,1.21,1.31,0.946,0.515,0.0622,0.214,0.247,0.179,0.0542,0.0427
NCI-H2126,0.374,0.372,0.337,0.346,0.278,1.11,1.12,1.1,0.945,0.554,0.875,1,1.01,1.01,0.697,0.627,0.625,0.552,0.597,0.555
NCI-H2347,0.463,0.427,0.438,0.382,0.332,0.611,0.89,0.698,0.361,0.268,0.696,0.814,0.642,0.229,0.289,0.625,0.608,0.66,0.594,0.389
